Test [1] addresses T1, Dual specificity mitogen-activated protein kinase kinase 7 (Homo sapiens, UniProt O14733).
T1 sequence (O14733 whole entry): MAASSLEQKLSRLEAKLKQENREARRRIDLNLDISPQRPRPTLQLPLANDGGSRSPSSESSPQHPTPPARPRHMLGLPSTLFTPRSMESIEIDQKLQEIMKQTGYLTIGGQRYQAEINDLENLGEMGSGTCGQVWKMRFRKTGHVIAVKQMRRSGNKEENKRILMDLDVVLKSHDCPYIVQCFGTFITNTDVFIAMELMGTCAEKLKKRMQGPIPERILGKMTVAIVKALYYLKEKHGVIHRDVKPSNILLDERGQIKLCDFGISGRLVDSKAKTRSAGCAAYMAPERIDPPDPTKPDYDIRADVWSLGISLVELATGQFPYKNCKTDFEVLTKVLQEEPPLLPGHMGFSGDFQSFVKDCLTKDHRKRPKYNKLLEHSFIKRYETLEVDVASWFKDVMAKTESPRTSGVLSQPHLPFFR
The experiment in a line: Inhibition of GST-tagged human MKK7 expressed in Escherichia coli (BL21(DE3) pLysS) co-expressing human MEKK catalytic domain using biotinylated and GST-tagged rat GST-KN-SAPKalpha substrate incubated for 1 hr by time-resolved fluorescence based assay.

In test [2] the test system is Mus musculus. The experiment in a line: Inhibition of anti-CD3 antibody-induced IL4 production in Balb/c mouse dosed intravenously 5 mins before anti-CD3 antibody injection and measured 2 hrs post-challenge by ELISA. It is filed as functional, organism-based. (In general: An ELISA detects its analyte on a solid surface through an enzyme-linked reagent.)
Test [3] concerns Mus musculus. The experiment in a line: Inhibition of anti-CD3 antibody-induced IFNgamma production in Balb/c mouse dosed intravenously 5 mins before anti-CD3 antibody injection and measured 2 hrs post-challenge by ELISA. It is filed as functional, organism-based.
For test [4], the system named is Mus musculus. Kind of test: Inhibition of anti-CD3 antibody-induced IL2 production in Balb/c mouse dosed intravenously 5 mins before anti-CD3 antibody injection and measured 2 hrs post-challenge by ELISA. It is filed as functional, organism-based.

pIC50: −log10 of the molar value. Active and inactive are the calls of the source. The rule behind the calls is not given here.

One may read the pIC50 as the IC50 on a negative log10 scale, so that one unit is a factor of ten. High values mean a small IC50, low ones a large IC50.

With `CN(CCO)c1ncnc2[nH]c3ccc(O)cc3c12`, in test [1], the pIC50 was over 6.00. The inhibition result in test [2], in test [3] and in test [4] was “Active” throughout.

Take `CC(O)CNc1ncnc2[nH]c3ccc(O)cc3c12` (stereo not drawn): the pIC50 in test [1] is over 6.00. Besides, the inhibition result in test [2], in test [3] and in test [4] was “Active” each time.

Molecule `Cc1nc(N2CCOCC2)c2c(n1)[nH]c1ccc(O)cc12` gave a pIC50 in test [1] of 6.00. The inhibition entry in test [2], in test [3] and in test [4] was “Active” each time.

In test [1], `Nc1nc(NC2CCCCCC2)c2c(n1)[nH]c1ccc(O)cc12` gave a pIC50 of over 6.00. Further, the inhibition result in test [2], in test [3] and in test [4] was “Active” each time.

In the case of `CC(CO)Nc1ncnc2[nH]c3ccc(C(N)=O)cc3c12` (stereo not drawn), in test [1], the pIC50 was over 6.00. Also, the inhibition result in test [2], in test [3] and in test [4] was “Active” in each case.

`Oc1ccc2[nH]c3ncnc(N4CCC(O)(Cc5ccccc5)CC4)c3c2c1` gave a pIC50 in test [1] of over 6.00. Moreover, the inhibition result in test [2], in test [3] and in test [4] was “Active” in each case.

Consider `Nc1nc(NC2CCCCC2)c2c(n1)[nH]c1ccc(O)cc12`, for which the pIC50 in test [1] was over 6.00. Besides, the inhibition entry in test [2], in test [3] and in test [4] was “Active” each time.

Turning to `NC(=O)c1ccc2[nH]c3ncnc(NC4CCCCC4)c3c2c1`, the pIC50 in test [1] was over 6.00. The inhibition result in test [2], in test [3] and in test [4] was “Active” each time.

With `Oc1ccc2[nH]c3ncnc(N4CCCC4)c3c2c1`, the pIC50 in test [1] was over 6.00. In addition, the inhibition result in test [2], in test [3] and in test [4] was “Active” throughout.

The molecule `CC1CC(C)CN(c2ncnc3[nH]c4ccc(C(N)=O)cc4c23)C1` (stereo not drawn) gave a pIC50 in test [1] of over 6.00. Moreover, the inhibition entry in test [2], in test [3] and in test [4] was “Active” each time.

For the molecule `Oc1ccc2[nH]c3ncnc(N4CCCC(O)C4)c3c2c1` (stereo not drawn), the negative-log IC50 (pIC50) in test [1] is over 6.00. In addition, the inhibition entry in test [2], in test [3] and in test [4] was “Active” each time.

`Cc1nc(N2CCCCCC2)c2c(n1)[nH]c1ccc(O)cc12` gave a pIC50 in test [1] of over 6.00. The inhibition entry in test [2], in test [3] and in test [4] was “Active” throughout.

As for `NC(=O)c1ccc2[nH]c3ncnc(N4CCC(O)CC4)c3c2c1`, the pIC50 in test [1] was over 6.00. For the same molecule, the inhibition result in test [2], in test [3] and in test [4] was “Active” throughout.

For `OCC1CCN(c2ncnc3[nH]c4ccc(O)cc4c23)CC1`, in test [1], the negative logarithm of the IC50 (pIC50) is over 6.00. The inhibition entry in test [2], in test [3] and in test [4] was “Active” in each case.

`CCC1CCCCN1c1ncnc2[nH]c3ccc(O)cc3c12` (stereo not drawn) had a pIC50 in test [1] of over 6.00. In addition, the inhibition entry in test [2], in test [3] and in test [4] was “Active” throughout.

Molecule `OCCC1CCCCN1c1ncnc2[nH]c3ccc(O)cc3c12` (stereo not drawn) gave a pIC50 in test [1] of over 6.00. Moreover, the inhibition entry in test [2], in test [3] and in test [4] was “Active” each time.

Turning to `CC(C)(C)OC(=O)NC1CCN(c2ncnc3[nH]c4ccc(O)cc4c23)CC1`, the pIC50 in test [1] is over 6.00. In addition, the inhibition entry in test [2], in test [3] and in test [4] was “Active” in each case.

In test [1], `Cc1nc(N2CCCCC2C)c2c(n1)[nH]c1ccc(O)cc12` (stereo not drawn) showed a pIC50 of over 6.00. Further, the inhibition result in test [2], in test [3] and in test [4] was “Active” in each case.

For `NC1CCN(c2ncnc3[nH]c4ccc(O)cc4c23)CC1`, the pIC50 in test [1] was over 6.00. For the same molecule, the inhibition result in test [2], in test [3] and in test [4] was “Active” throughout.

Molecule `Cc1nc(N2CCC(C)CC2)c2c(n1)[nH]c1ccc(O)cc12` gave a negative logarithm of the IC50 (pIC50) in test [1] of over 6.00. Besides, the inhibition entry in test [2], in test [3] and in test [4] was “Active” throughout.

Molecule `COc1ccc2[nH]c3nc(N)nc(N4CCOCC4)c3c2c1` showed a pIC50 in test [1] of over 6.00. Moreover, the inhibition result in test [2], in test [3] and in test [4] was “Active” in each case.

`Oc1ccc2[nH]c3ncnc(N4CCC[C@@H](O)C4)c3c2c1` showed a negative-log IC50 (pIC50) in test [1] of over 6.00. Also, the inhibition entry in test [2], in test [3] and in test [4] was “Active” each time.

The molecule `CCCN(CCC)c1ncnc2[nH]c3ccc(C(N)=O)cc3c12` had a negative-log IC50 (pIC50) in test [1] of over 6.00. Moreover, the inhibition result in test [2], in test [3] and in test [4] was “Active” each time.

For the molecule `CC(=O)NC1CCN(c2ncnc3[nH]c4ccc(C(N)=O)cc4c23)CC1`, in test [1], the pIC50 was over 6.00. Further, the inhibition result in test [2], in test [3] and in test [4] was “Active” throughout.

In turn, `O=C1CCN(c2ncnc3[nH]c4ccc(O)cc4c23)CC1` had a pIC50 in test [1] of over 6.00. Moreover, the inhibition entry in test [2], in test [3] and in test [4] was “Active” throughout.

On to `NC(=O)c1ccc2[nH]c3ncnc(N4CCOCC4)c3c2c1`, for which the pIC50 in test [1] is over 6.00. The inhibition result in test [2], in test [3] and in test [4] was “Active” in each case.

Regarding `CC1CCN(c2ncnc3[nH]c4ccc(O)cc4c23)CC1`, the pIC50 in test [1] was over 6.00. Besides, the inhibition result in test [2], in test [3] and in test [4] was “Active” throughout.

As to `Nc1nc(N(Cc2ccccc2)Cc2ccccc2)c2c(n1)[nH]c1ccc(O)cc12`, in test [1], the negative logarithm of the IC50 (pIC50) was under 5.00. Also, the inhibition entry in test [2], in test [3] and in test [4] was “Active” in each case.

The molecule `Cc1ccc2[nH]c3nc(N)nc(N4CCCCC4)c3c2c1` had a pIC50 in test [1] of over 6.00. Moreover, the inhibition entry in test [2], in test [3] and in test [4] was “Active” in each case.

With `NC(=O)C1CCCN(c2ncnc3[nH]c4ccc(O)cc4c23)C1` (stereo not drawn), the pIC50 in test [1] was over 6.00. For the same molecule, the inhibition result in test [2], in test [3] and in test [4] was “Active” throughout.

`CN(C)c1ncnc2[nH]c3ccc(O)cc3c12`: in test [1], the pIC50 is over 6.00. Also, the inhibition entry in test [2], in test [3] and in test [4] was “Active” in each case.

`Oc1ccc2[nH]c3ncnc(N4CCNCC4)c3c2c1` showed a pIC50 in test [1] of over 6.00. For the same molecule, the inhibition entry in test [2], in test [3] and in test [4] was “Active” throughout.

The values above are taken from ChEMBL document CHEMBL3714742, “Pyrimido (4,5-b) indole derivatives” (2003).
